Results taken from US12539292B2, “BRM targeting compounds and associated methods of use” (Arvinas Operations, Inc., priority 2018, dated 2026).
Like-named read-outs stand apart in the source and are kept apart here.

Biological target: T1, BRM (Homo sapiens, UniProt P51531)
T1 construct: In-Cell Western Screen of BRM Degradation in SW1573 Cells; endogenous in cells; host or cells: SW1573
Test: In-cell Western screen of BRM degradation in SW1573 cells (Dmax and DC50)
Type: cell-based
Conditions: BRM degradation, SW1573 cells; for Dmax: read-out: Dmax (% degraded)
Summary of the method: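 After adhering overnight, cells received compound for 18-20 hours. They were then washed in cold DPBS, fixed with 4% PFA for 20 min and permeabilized for 30 min. Blocking and fluorescent secondary staining followed before imaging.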

T1 sequence (P51531 whole entry): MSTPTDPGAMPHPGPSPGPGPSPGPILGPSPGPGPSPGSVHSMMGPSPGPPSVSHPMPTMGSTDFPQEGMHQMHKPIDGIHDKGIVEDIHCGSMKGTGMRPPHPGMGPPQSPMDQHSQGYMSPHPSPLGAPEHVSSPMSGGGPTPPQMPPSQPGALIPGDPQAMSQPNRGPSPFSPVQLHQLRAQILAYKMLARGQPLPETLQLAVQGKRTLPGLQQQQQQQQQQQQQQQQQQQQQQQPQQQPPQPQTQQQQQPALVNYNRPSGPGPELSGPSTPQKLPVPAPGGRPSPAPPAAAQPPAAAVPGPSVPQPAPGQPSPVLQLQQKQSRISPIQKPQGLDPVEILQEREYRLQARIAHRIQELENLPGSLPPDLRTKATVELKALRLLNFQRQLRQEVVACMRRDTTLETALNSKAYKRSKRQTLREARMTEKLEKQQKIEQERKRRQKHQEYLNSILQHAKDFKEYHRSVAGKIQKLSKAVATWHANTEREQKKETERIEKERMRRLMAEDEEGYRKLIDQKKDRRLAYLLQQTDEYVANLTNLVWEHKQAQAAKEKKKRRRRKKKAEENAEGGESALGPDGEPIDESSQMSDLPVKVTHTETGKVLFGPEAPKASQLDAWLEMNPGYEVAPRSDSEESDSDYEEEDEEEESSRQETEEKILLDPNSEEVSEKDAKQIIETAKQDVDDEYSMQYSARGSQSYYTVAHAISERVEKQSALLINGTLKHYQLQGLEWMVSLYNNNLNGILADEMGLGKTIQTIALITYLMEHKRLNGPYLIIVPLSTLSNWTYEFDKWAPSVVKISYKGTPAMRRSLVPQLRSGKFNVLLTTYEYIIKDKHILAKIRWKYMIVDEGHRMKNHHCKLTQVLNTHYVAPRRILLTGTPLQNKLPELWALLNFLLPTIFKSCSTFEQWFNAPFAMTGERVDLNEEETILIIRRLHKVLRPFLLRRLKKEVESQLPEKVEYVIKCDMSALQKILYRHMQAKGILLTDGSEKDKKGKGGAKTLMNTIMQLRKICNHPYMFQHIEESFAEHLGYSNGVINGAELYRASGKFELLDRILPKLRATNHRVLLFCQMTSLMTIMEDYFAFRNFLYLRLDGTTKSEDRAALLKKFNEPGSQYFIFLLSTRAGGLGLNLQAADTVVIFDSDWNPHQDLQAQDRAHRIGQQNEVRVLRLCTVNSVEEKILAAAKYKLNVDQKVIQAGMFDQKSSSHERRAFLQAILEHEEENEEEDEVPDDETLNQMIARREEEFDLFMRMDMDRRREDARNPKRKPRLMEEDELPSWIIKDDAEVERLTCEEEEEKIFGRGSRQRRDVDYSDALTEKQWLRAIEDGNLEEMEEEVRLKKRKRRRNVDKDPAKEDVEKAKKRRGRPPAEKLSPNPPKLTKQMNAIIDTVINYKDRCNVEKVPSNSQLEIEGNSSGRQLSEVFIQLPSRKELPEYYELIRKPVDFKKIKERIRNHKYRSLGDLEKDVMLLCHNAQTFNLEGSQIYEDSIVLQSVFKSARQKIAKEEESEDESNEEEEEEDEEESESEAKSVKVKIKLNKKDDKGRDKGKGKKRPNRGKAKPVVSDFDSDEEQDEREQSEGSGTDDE

**Q.** What does the source list for `Cc1ncsc1-c1ccc([C@H](C)NC(=O)[C@@H]2C[C@@H](O)CN2C(=O)[C@H](c2cc(N3CCC(N4CCC(O[C@H]5C[C@H](Oc6cc(N7C8CCC7CN(c7cc(-c9ccccc9O)nnc7N)C8)ccn6)C5)CC4)CC3)no2)C(C)C)cc1` [compound 684, (2S,4R)-1-((2S)-2-(3-(4-((1r,3S)-3-((4-(3-(3-amino-6-(2-hydroxyphenyl)pyridazin-4-yl)-3,8-diazabicyclo[3.2.1]octan-8-yl)pyridin-2-yl)oxy)cyclobutoxy)-[1,4'-bipiperidin]-1'-yl)isoxazol-5-yl)-3-methylbutanoyl)-4-hydroxy-N-((S)-1-(4-(4-methylthiazol-5-yl)phenyl)ethyl)pyrrolidine-2-carboxamide]?
**A.** DC50 (read-out: DC50): 10 to 30 nM; Dmax: 50 to 75%

**Q.** `Cc1ncsc1-c1ccc([C@H](C)NC(=O)[C@@H]2C[C@@H](O)CN2C(=O)[C@@H](c2cc(N3CCC(N4CCC(O[C@H]5C[C@H](Oc6cc(N7C8CCC7CN(c7cc(-c9ccccc9O)nnc7N)C8)ccn6)C5)CC4)CC3)no2)C(C)C)cc1` [compound 685, (2S,4R)-1-((2R)-2-(3-(4-((1r,3R)-3-((4-(3-(3-amino-6-(2-hydroxyphenyl)pyridazin-4-yl)-3,8-diazabicyclo[3.2.1]octan-8-yl)pyridin-2-yl)oxy)cyclobutoxy)-[1,4'-bipiperidin]-1'-yl)isoxazol-5-yl)-3-methylbutanoyl)-4-hydroxy-N-((S)-1-(4-(4-methylthiazol-5-yl)phenyl)ethyl)pyrrolidine-2-carboxamide] was tested. Which DC50 (read-out: DC50) did it give?
**A.** Its DC50 is under 2.5 nM.

**Q.** And the Dmax?
**A.** The Dmax was over 75%.

**Q.** With `Cc1ncsc1-c1ccc([C@@H](CCCC(=O)O)NC(=O)[C@@H]2C[C@@H](O)CN2C(=O)C(c2cc(OCCN3CCC(O[C@H]4C[C@H](Oc5cc(N6C7CCC6CN(c6cc(-c8ccccc8O)nnc6N)C7)ccn5)C4)CC3)no2)C(C)C)cc1` (stereo partly drawn) [compound 686, (5R)-5-((2S,4R)-1-(2-(3-(2-(4-((1r,3r)-3-((4-(3-(3-amino-6-(2-hydroxyphenyl)pyridazin-4-yl)-3,8-diazabicyclo[3.2.1]octan-8-yl)pyridin-2-yl)oxy)cyclobutoxy)piperidin-1-yl)ethoxy)isoxazol-5-yl)-3-methylbutanoyl)-4-hydroxypyrrolidine-2-carboxamido)-5-(4-(4-methylthiazol-5-yl)phenyl)pentanoic acid] as the molecule, how does the DC50 (read-out: DC50) read?
**A.** The DC50 was over 30 nM.

**Q.** For `Cc1ncsc1-c1ccc([C@H](CCCC(=O)O)NC(=O)[C@@H]2C[C@@H](O)CN2C(=O)C(c2cc(OCCN3CCC(O[C@H]4C[C@H](Oc5cc(N6C7CCC6CN(c6cc(-c8ccccc8O)nnc6N)C7)ccn5)C4)CC3)no2)C(C)C)cc1` (stereo partly drawn) [compound 687, (5S)-5-((2S,4R)-1-(2-(3-(2-(4-((1r,3r)-3-((4-(3-(3-amino-6-(2-hydroxyphenyl)pyridazin-4-yl)-3,8-diazabicyclo[3.2.1]octan-8-yl)pyridin-2-yl)oxy)cyclobutoxy)piperidin-1-yl)ethoxy)isoxazol-5-yl)-3-methylbutanoyl)-4-hydroxypyrrolidine-2-carboxamido)-5-(4-(4-methylthiazol-5-yl)phenyl)pentanoic acid], which DC50 (read-out: DC50) is on record?
**A.** Its DC50 is over 30 nM.

**Q.** `Cc1ncsc1-c1ccc([C@H](C)NC(=O)[C@@H]2C[C@@H](O)CN2C(=O)[C@H](c2cc(N3CCC4(CCN(CC5CCN(C[C@H]6C[C@H](Oc7cc(N8C9CCC8CN(c8cc(-c%10ccccc%10O)nnc8N)C9)ccn7)C6)CC5)CC4)CC3)no2)C(C)C)cc1` [compound 688, (2S,4R)-1-((2S)-2-(3-(9-((1-(((1r,3r)-3-((4-(3-(3-amino-6-(2-hydroxyphenyl)pyridazin-4-yl)-3,8-diazabicyclo[3.2.1]octan-8-yl)pyridin-2-yl)oxy)cyclobutyl)methyl)piperidin-4-yl)methyl)-3,9-diazaspiro[5.5]undecan-3-yl)isoxazol-5-yl)-3-methylbutanoyl)-4-hydroxy-N-((S)-1-(4-(4-methylthiazol-5-yl)phenyl)ethyl)pyrrolidine-2-carboxamide] was tested. Which DC50 (read-out: DC50) did it give?
**A.** The DC50 was over 30 nM.

**Q.** `Cc1ncsc1-c1ccc([C@H](C)NC(=O)[C@@H]2C[C@@H](O)CN2C(=O)[C@@H](c2cc(N3CCC4(CCN(CC5CCN(C[C@H]6C[C@H](Oc7cc(N8C9CCC8CN(c8cc(-c%10ccccc%10O)nnc8N)C9)ccn7)C6)CC5)CC4)CC3)no2)C(C)C)cc1` [compound 689, (2S,4R)-1-((2R)-2-(3-(9-((1-(((1r,3r)-3-((4-(3-(3-amino-6-(2-hydroxyphenyl)pyridazin-4-yl)-3,8-diazabicyclo[3.2.1]octan-8-yl)pyridin-2-yl)oxy)cyclobutyl)methyl)piperidin-4-yl)methyl)-3,9-diazaspiro[5.5]undecan-3-yl)isoxazol-5-yl)-3-methylbutanoyl)-4-hydroxy-N-((S)-1-(4-(4-methylthiazol-5-yl)phenyl)ethyl)pyrrolidine-2-carboxamide] was tested. Which DC50 (read-out: DC50) did it give?
**A.** The DC50 was under 2.5 nM.

**Q.** What about the Dmax of the same molecule?
**A.** Its Dmax is over 75%.

**Q.** What does the source list for `Cc1ncsc1-c1ccc([C@H](C)NC(=O)[C@@H]2C[C@@H](O)CN2C(=O)[C@@H](c2cc(N3CCC(CN4CCC(O[C@H]5C[C@H](Oc6cc(N7C8CCC7CN(c7cc(-c9ccccc9O)nnc7N)C8)ccn6)C5)CC4)CC3)no2)C(C)C)c(O)c1` [compound 690, (2S,4R)-1-((2R)-2-(3-(4-((4-((1r,3r)-3-((4-(3-(3-amino-6-(2-hydroxyphenyl)pyridazin-4-yl)-3,8-diazabicyclo[3.2.1]octan-8-yl)pyridin-2-yl)oxy)cyclobutoxy)piperidin-1-yl)methyl)piperidin-1-yl)isoxazol-5-yl)-3-methylbutanoyl)-4-hydroxy-N-((S)-1-(2-hydroxy-4-(4-methylthiazol-5-yl)phenyl)ethyl)pyrrolidine-2-carboxamide]?
**A.** DC50 (read-out: DC50): < 2.5 nM; Dmax: > 75%

**Q.** For `Cc1ncsc1-c1ccc([C@H](C)NC(=O)[C@@H]2C[C@@H](O)CN2C(=O)[C@@H](c2cc(N3CCC(CN4CCC(OC5CC(Oc6cc(N7C8CC[C@@H]7CN(c7cc(-c9ccccc9O)nnc7N)C8)ccn6)C5)CC4)CC3)no2)C(C)C)cc1O` (stereo partly drawn) [compound 691, (2S,4R)-1-((2R)-2-(3-(4-((4-((1r,3r)-3-((4-(3-(3-amino-6-(2-hydroxyphenyl)pyridazin-4-yl)-3,8-diazabicyclo[3.2.1]octan-8-yl)pyridin-2-yl)oxy)cyclobutoxy)piperidin-1-yl)methyl)piperidin-1-yl)isoxazol-5-yl)-3-methylbutanoyl)-4-hydroxy-N-((S)-1-(3-hydroxy-4-(4-methylthiazol-5-yl)phenyl)ethyl)pyrrolidine-2-carboxamide], which “Dmax (% degraded)” value is on record?
**A.** The value was “A (A > 75)”.

**Q.** What about the DC50 (read-out: DC50) of the same molecule?
**A.** Its DC50 is under 2.5 nM.

**Q.** `Cc1ncsc1-c1ccc([C@H](C)NC(=O)[C@@H]2C[C@@H](O)CN2C(=O)C(c2cc(N3CCC(C(C)(C)N4CCC(O[C@H]5C[C@H](Oc6cc(N7C8CCC7CN(c7cc(-c9ccccc9O)nnc7N)C8)ccn6)C5)CC4)CC3)no2)C(C)C)cc1` (stereo partly drawn) [compound 692, (2S,4R)-1-(2-(3-(4-(2-(4-((1r,3r)-3-((4-(3-(3-amino-6-(2-hydroxyphenyl)pyridazin-4-yl)-3,8-diazabicyclo[3.2.1]octan-8-yl)pyridin-2-yl)oxy)cyclobutoxy)piperidin-1-yl)propan-2-yl)piperidin-1-yl)isoxazol-5-yl)-3-methylbutanoyl)-4-hydroxy-N-((S)-1-(4-(4-methylthiazol-5-yl)phenyl)ethyl)pyrrolidine-2-carboxamide] was tested. Which DC50 (read-out: DC50) did it give?
**A.** The DC50 was under 2.5 nM.

**Q.** What about the Dmax of the same molecule?
**A.** Its Dmax is over 75%.

**Q.** With `Cc1ncsc1-c1ccc([C@H](C)NC(=O)[C@@H]2C[C@@H](O)CN2C(=O)[C@@H](c2cc(N3CCC(CN4CCC(O[C@H]5C[C@H](Oc6cc(N7CCN(c8cc(-c9ccccc9O)nnc8N)CC7)ccn6)C5)CC4)CC3)no2)C(C)C)cc1` [compound 693, (2S,4R)-1-((R)-2-(3-(4-((4-((1r,3r)-3-((4-(4-(3-amino-6-(2-hydroxyphenyl)pyridazin-4-yl)piperazin-1-yl)pyridin-2-yl)oxy)cyclobutoxy)piperidin-1-yl)methyl)piperidin-1-yl)isoxazol-5-yl)-3-methylbutanoyl)-4-hydroxy-N-((S)-1-(4-(4-methylthiazol-5-yl)phenyl)ethyl)pyrrolidine-2-carboxamide] as the molecule, how does the DC50 read?
**A.** The DC50 was under 2.5 nM.

**Q.** With `Cc1ncsc1-c1ccc([C@H](C)NC(=O)[C@@H]2C[C@@H](O)CN2C(=O)[C@H](c2cc(N3CCC4(CC3)CN(CC3CCN(C[C@H]5C[C@H](Oc6cc(N7C8CCC7CN(c7cc(-c9ccccc9O)nnc7N)C8)ccn6)C5)CC3)C4)no2)C(C)C)cc1` [compound 694, (2S,4R)-1-((2S)-2-(3-(2-((1-(((1r,3r)-3-((4-(3-(3-amino-6-(2-hydroxyphenyl)pyridazin-4-yl)-3,8-diazabicyclo[3.2.1]octan-8-yl)pyridin-2-yl)oxy)cyclobutyl)methyl)piperidin-4-yl)methyl)-2,7-diazaspiro[3.5]nonan-7-yl)isoxazol-5-yl)-3-methylbutanoyl)-4-hydroxy-N-((S)-1-(4-(4-methylthiazol-5-yl)phenyl)ethyl)pyrrolidine-2-carboxamide] as the molecule, how does the DC50 (read-out: DC50) read?
**A.** Its DC50 is over 30 nM.

**Q.** How did the DC50 (read-out: DC50) turn out when `Cc1ncsc1-c1ccc([C@H](C)NC(=O)[C@@H]2C[C@@H](O)CN2C(=O)[C@@H](c2cc(N3CCC4(CC3)CN(CC3CCN(C[C@H]5C[C@H](Oc6cc(N7C8CCC7CN(c7cc(-c9ccccc9O)nnc7N)C8)ccn6)C5)CC3)C4)no2)C(C)C)cc1` [compound 695, (2S,4R)-1-((2R)-2-(3-(2-((1-(((1r,3r)-3-((4-(3-(3-amino-6-(2-hydroxyphenyl)pyridazin-4-yl)-3,8-diazabicyclo[3.2.1]octan-8-yl)pyridin-2-yl)oxy)cyclobutyl)methyl)piperidin-4-yl)methyl)-2,7-diazaspiro[3.5]nonan-7-yl)isoxazol-5-yl)-3-methylbutanoyl)-4-hydroxy-N-((S)-1-(4-(4-methylthiazol-5-yl)phenyl)ethyl)pyrrolidine-2-carboxamide] was run?
**A.** The DC50 was under 2.5 nM.

**Q.** What about the Dmax of the same molecule?
**A.** Its Dmax is over 75%.
